# Assay results published in ChEMBL document CHEMBL1138892, “Synthesis of Hsp90 dimerization modulators” (Bioorg Med Chem Lett, 2006).
# Target: Heat shock protein HSP90 (Homo sapiens, UniProt P07900+P08238)
# Description: Displacement of GM-BODIPY from Hsp90
row,Structure (SMILES),EC50
1,COC1=C2C[C@@H](C)C[C@H](OC)[C@H](O)[C@@H](C)/C=C(\C)[C@H](OC(N)=O)[C@@H](OC)/C=C\C=C(/C)C(=O)NC(=C(NC/C=C\CNC3=C4NC(=O)/C(C)=C/C=C\[C@H](OC)[C@@H](OC(N)=O)/C(C)=C/[C@H](C)[C@@H](O)[C@@H](OC)C[C@H](C)CC(=C(OC)C3=O)C4=O)C1=O)C2=O,345 nM
2,COC1=C2C[C@@H](C)C[C@H](OC)[C@H](O)[C@@H](C)/C=C(\C)[C@H](OC(N)=O)[C@@H](OC)/C=C\C=C(/C)C(=O)NC(=C(NC/C=C/CNC3=C4NC(=O)/C(C)=C/C=C\[C@H](OC)[C@@H](OC(N)=O)/C(C)=C/[C@H](C)[C@@H](O)[C@@H](OC)C[C@H](C)CC(=C(OC)C3=O)C4=O)C1=O)C2=O,45 nM
3,COC1=C2C[C@@H](C)C[C@H](OC)[C@H](O)[C@@H](C)/C=C(\C)[C@H](OC(N)=O)[C@@H](OC)/C=C\C=C(/C)C(=O)NC(=C(NCCCCCCCCCNC3=C4NC(=O)/C(C)=C/C=C\[C@H](OC)[C@@H](OC(N)=O)/C(C)=C/[C@H](C)[C@@H](O)[C@@H](OC)C[C@H](C)CC(=C(OC)C3=O)C4=O)C1=O)C2=O,465 nM
4,COC1=C2C[C@@H](C)C[C@H](OC)[C@H](O)[C@@H](C)/C=C(\C)[C@H](OC(N)=O)[C@@H](OC)/C=C\C=C(/C)C(=O)NC(=C(NCCCCNC3=C4NC(=O)/C(C)=C/C=C\[C@H](OC)[C@@H](OC(N)=O)/C(C)=C/[C@H](C)[C@@H](O)[C@@H](OC)C[C@H](C)CC(=C(OC)C3=O)C4=O)C1=O)C2=O,91 nM
